Experimental findings from publication PMC6430017, “Structural and chemical insights into the covalent-allosteric inhibition of the protein kinase Akt” (Chemical Science, 2019) are described below.

Molecules are shown by their SMILES.

Usually inhibition stands for the relative decrease from the control value, in per cent.

Some targets named below: ROCK1 (Homo sapiens, UniProt Q13464); RET (Homo sapiens, UniProt P07949); FRAP1 (mTOR) (Homo sapiens, UniProt P42345); PRKCH (PKC eta) (Homo sapiens, UniProt P24723); TEK (Tie2) (Homo sapiens, UniProt Q02763); AURKB (Aurora B) (Homo sapiens, UniProt Q96GD4); ALK (Homo sapiens, UniProt Q9UM73); PDGFRA (PDGFR alpha) (Homo sapiens, UniProt P16234).
Common to all, as to assay: SelectScreen Z'LYTE kinase profiling
What all share (format): biochemical
What all share (details): ATP at apparent KM

For another experiment, the target named is T1, BMX (Homo sapiens, UniProt P51813).
T1 sequence (P51813 1-675): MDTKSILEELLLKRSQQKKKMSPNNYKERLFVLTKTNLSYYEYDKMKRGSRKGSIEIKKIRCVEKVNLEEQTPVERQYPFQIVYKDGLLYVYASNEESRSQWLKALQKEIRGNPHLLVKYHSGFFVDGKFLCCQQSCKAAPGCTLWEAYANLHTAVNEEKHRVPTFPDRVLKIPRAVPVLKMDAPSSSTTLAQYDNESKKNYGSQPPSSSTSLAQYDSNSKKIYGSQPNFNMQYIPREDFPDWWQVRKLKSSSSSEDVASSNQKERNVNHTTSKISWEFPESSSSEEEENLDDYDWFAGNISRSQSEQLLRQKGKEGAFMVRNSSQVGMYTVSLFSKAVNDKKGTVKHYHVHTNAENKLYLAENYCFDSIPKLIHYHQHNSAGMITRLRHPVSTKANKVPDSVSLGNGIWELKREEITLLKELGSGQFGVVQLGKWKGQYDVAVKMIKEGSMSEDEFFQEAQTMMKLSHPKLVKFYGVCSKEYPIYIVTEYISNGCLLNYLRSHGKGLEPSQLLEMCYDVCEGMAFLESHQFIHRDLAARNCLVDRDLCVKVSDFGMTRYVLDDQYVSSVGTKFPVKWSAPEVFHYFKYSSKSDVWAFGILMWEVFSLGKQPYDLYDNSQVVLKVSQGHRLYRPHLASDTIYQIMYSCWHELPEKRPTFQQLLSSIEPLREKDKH

A further experiment has as its target T2, AURKA (Aurora A) (Homo sapiens, UniProt O14965).
T2 sequence (O14965 1-403): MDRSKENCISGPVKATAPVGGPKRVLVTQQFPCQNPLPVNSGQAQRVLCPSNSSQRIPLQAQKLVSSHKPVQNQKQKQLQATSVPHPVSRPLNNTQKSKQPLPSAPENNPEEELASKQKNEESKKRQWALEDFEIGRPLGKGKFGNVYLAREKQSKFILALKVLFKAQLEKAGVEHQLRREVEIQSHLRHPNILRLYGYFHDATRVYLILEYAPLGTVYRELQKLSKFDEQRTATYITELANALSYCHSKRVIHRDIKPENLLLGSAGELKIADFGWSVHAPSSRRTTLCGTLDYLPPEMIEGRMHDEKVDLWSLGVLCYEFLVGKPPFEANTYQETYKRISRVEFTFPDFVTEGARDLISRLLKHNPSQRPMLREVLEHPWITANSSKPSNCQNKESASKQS

The target in another experiment is T3, DCAMKL2 (DCK2) (Homo sapiens, UniProt Q8N568).
T3 sequence (Q8N568 1-766): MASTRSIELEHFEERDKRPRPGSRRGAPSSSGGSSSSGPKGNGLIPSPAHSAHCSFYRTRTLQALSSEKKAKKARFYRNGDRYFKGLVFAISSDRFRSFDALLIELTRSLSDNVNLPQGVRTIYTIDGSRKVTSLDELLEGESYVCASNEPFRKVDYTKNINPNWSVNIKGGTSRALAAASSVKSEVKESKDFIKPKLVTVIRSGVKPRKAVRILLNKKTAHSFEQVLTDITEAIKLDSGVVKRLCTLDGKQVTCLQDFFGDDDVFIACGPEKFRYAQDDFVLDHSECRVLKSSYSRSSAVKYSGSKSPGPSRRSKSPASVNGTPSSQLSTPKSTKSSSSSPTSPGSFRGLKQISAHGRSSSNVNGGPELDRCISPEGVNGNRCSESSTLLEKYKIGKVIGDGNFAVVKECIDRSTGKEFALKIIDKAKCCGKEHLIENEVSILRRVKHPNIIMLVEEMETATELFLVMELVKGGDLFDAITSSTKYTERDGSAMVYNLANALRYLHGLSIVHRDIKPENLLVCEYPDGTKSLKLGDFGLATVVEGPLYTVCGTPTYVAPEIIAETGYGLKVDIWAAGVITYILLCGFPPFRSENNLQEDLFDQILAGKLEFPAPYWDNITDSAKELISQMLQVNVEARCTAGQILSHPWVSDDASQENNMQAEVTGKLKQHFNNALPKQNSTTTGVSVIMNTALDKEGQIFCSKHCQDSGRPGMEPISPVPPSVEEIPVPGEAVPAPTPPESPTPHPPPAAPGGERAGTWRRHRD

A further experiment deals with T4, TXK (Homo sapiens, UniProt P42681).
T4 sequence (P42681 1-527): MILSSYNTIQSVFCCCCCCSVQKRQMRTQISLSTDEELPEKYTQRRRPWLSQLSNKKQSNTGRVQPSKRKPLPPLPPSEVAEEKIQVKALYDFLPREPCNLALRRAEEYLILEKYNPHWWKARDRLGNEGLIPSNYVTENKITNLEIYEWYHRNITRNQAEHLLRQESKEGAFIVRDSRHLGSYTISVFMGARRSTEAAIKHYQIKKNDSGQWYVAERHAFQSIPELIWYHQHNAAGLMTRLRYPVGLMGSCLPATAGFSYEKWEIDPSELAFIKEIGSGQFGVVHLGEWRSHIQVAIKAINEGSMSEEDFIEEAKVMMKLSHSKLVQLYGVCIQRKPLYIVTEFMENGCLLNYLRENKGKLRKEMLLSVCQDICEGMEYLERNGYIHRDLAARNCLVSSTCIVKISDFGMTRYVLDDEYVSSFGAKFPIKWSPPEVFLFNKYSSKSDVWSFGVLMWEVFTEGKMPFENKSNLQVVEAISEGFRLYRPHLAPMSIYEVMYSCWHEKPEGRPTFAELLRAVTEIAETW

PRKCH (PKC eta), sequence (P24723 whole entry): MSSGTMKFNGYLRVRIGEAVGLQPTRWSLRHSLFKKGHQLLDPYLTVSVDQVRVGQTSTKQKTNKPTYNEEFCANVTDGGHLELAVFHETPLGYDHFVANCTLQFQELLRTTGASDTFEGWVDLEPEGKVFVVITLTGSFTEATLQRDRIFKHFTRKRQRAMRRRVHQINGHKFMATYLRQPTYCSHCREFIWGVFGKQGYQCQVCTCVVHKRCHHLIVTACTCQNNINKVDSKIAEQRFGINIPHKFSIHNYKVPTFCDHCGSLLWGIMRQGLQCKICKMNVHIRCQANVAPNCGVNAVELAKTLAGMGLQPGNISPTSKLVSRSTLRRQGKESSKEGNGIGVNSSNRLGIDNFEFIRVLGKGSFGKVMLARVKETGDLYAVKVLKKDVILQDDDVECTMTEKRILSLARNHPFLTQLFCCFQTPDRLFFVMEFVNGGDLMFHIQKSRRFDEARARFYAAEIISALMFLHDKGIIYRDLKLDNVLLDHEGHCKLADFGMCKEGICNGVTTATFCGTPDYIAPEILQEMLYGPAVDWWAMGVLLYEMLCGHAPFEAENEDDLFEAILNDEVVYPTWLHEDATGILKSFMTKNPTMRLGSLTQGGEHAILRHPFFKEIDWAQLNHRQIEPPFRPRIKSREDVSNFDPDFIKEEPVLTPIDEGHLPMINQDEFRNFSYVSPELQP
PDGFRA (PDGFR alpha), sequence (P16234 24-1089): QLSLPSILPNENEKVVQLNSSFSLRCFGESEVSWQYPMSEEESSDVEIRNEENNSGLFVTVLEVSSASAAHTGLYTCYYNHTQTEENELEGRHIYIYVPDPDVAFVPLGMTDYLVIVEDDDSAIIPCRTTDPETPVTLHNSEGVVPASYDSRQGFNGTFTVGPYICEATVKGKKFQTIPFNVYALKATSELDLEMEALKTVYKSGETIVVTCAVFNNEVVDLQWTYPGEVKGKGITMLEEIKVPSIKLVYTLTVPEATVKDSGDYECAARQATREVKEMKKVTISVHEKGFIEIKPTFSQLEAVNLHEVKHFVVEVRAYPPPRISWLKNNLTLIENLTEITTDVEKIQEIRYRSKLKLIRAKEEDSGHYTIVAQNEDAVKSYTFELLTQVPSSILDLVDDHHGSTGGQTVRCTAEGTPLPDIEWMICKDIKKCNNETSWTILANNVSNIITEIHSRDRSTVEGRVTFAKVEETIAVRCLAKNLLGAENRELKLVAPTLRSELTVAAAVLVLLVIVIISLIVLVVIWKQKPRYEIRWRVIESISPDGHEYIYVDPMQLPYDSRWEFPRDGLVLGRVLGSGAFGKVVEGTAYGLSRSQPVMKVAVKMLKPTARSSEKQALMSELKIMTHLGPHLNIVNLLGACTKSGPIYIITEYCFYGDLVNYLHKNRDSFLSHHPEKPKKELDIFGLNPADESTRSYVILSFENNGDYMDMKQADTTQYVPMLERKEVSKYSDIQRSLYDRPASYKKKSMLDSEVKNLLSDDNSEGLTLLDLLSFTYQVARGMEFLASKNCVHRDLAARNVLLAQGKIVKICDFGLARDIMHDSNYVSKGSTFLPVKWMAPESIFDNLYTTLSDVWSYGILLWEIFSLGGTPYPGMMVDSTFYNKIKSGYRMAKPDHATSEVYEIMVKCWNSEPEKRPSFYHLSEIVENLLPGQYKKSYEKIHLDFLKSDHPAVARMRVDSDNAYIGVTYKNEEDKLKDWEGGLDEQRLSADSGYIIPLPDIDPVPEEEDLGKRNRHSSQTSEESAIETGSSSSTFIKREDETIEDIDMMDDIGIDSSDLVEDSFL
TEK (Tie2), sequence (Q02763 23-1124): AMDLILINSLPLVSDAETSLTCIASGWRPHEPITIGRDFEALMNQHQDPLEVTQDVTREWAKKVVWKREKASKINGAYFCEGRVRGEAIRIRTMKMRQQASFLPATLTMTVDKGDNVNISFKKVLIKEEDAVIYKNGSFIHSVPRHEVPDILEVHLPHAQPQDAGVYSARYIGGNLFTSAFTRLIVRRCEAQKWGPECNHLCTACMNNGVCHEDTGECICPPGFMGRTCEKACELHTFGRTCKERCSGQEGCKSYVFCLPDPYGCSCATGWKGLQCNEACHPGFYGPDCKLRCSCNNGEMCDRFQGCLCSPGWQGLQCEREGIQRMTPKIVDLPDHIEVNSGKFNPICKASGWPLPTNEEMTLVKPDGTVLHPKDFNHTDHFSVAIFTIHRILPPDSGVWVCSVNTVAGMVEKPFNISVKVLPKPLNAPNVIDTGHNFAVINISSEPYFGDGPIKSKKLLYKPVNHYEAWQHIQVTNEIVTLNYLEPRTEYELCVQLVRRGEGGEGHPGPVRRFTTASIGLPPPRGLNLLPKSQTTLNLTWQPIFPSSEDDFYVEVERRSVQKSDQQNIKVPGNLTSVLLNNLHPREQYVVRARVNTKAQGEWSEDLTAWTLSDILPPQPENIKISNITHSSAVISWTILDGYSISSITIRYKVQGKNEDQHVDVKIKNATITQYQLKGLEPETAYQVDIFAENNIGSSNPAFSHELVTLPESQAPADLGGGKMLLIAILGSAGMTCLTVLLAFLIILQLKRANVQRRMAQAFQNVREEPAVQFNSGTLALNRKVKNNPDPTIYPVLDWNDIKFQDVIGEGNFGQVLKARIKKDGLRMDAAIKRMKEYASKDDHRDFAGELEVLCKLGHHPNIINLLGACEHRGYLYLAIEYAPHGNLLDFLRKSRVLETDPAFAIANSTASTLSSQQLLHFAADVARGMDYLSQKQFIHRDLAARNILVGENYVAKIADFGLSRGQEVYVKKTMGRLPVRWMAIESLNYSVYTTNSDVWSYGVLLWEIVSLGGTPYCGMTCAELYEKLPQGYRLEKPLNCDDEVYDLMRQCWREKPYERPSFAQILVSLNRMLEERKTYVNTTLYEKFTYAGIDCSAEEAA
ALK, sequence (Q9UM73 19-1620): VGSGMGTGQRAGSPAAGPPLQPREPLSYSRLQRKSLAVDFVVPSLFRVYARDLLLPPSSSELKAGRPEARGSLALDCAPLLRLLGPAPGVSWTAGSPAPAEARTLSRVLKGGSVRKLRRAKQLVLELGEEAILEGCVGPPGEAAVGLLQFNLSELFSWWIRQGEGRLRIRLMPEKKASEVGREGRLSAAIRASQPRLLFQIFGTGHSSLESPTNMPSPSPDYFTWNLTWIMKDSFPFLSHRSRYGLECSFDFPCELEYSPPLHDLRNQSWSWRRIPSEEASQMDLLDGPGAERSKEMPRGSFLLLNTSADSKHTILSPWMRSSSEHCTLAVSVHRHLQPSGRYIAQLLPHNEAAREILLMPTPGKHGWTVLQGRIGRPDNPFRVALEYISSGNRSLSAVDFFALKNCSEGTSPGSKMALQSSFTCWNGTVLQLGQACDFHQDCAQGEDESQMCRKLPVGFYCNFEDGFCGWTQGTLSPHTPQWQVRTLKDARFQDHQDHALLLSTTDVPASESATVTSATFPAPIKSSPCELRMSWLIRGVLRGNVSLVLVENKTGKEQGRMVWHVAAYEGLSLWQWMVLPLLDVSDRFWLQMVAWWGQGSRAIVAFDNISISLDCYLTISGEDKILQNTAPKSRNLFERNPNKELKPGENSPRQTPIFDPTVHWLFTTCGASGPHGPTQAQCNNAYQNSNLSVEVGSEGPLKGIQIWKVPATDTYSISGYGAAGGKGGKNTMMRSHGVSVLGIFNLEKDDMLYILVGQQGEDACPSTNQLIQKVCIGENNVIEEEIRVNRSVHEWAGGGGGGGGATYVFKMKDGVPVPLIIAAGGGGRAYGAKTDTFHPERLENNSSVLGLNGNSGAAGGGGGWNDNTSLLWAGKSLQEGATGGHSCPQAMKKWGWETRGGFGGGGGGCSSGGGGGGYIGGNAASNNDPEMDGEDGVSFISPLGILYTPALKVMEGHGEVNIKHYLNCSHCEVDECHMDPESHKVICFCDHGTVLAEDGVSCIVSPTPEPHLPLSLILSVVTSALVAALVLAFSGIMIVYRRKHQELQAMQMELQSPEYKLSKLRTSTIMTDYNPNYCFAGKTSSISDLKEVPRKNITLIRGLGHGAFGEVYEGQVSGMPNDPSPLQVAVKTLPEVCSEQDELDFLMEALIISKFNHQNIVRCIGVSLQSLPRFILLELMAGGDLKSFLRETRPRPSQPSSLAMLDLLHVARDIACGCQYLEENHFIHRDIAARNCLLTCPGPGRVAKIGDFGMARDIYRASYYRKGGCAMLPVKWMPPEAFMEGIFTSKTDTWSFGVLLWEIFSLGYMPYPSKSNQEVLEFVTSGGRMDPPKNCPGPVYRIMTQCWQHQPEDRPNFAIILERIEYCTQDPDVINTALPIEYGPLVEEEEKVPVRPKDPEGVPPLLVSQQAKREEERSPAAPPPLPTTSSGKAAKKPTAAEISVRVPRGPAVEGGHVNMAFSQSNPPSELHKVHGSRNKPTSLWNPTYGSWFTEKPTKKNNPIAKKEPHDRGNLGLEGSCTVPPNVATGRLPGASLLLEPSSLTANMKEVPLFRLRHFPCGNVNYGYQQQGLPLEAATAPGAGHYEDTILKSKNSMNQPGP
AURKB (Aurora B), sequence (Q96GD4 whole entry): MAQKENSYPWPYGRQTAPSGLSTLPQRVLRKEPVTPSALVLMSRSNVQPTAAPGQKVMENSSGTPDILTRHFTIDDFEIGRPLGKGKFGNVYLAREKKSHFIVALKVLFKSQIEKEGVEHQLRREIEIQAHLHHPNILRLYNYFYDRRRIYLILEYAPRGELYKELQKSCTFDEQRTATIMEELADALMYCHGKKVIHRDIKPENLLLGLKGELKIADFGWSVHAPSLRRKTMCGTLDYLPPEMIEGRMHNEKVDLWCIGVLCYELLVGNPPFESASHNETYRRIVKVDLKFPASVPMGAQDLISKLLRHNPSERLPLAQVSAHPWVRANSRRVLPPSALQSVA
Method for ALK: (§1) protein kinases at a compound concentration of 1 µM. Measurements were performed in duplicates
(§2) and at the particular apparent ATP KM of each individual kinase employing the activity based Z’LYTE®
(§3) kinase assay of the SelectScreen® Kinase Profiling Services (ThermoFisher Scientific).
(§4) kinases at a compound concentration of 1 µM. Measurements were performed in duplicates and at
(§5) the particular apparent ATP KM of each individual kinase employing the activity based Z’LYTE® kinase
(§6) assay of the SelectScreen® Kinase Profiling Services (ThermoFisher Scientific).
Method for AURKA (Aurora A): as §1, §2, §3, §4, §5, §6
Method for AURKB (Aurora B): as §1, §2, §3, §4, §5, §6
Method for BMX: as §1, §2, §3, §4, §5, §6
Method for DCAMKL2 (DCK2): as §1, §2, §3, §4, §5, §6
Method for FRAP1 (mTOR): as §1, §2, §3, §4, §5, §6
Method for PDGFRA (PDGFR alpha): as §1, §2, §3, §4, §5, §6
Method for PRKCH (PKC eta): as §1, §2, §3, §4, §5, §6
Method for RET: as §1, §2, §3, §4, §5, §6
Method for ROCK1: as §1, §2, §3, §4, §5, §6
Method for TEK (Tie2): as §1, §2, §3, §4, §5, §6
Method for TXK: as §1, §2, §3, §4, §5, §6

Turning to `C=CC(=O)Nc1ccc2c(c1)n(C1CCN(Cc3ccc(-c4nc5cc[nH]c(=O)c5cc4-c4ccccc4)cc3)CC1)c(=O)n2C` [24b], the inhibition at 1 µM at BMX amounted to 28%; on ROCK1 it was 16%; on RET, 10%; at FRAP1 (mTOR), 8%; on PRKCH (PKC eta), 7%; at AURKA (Aurora A) it was 7%. For the same compound, the inhibition at 1 µM at TEK (Tie2) is 2%; at AURKB (Aurora B), 0%; at DCAMKL2 (DCK2), -1%; on ALK, -3%; on PDGFRA (PDGFR alpha), -5%; on TXK, -5%.
`C=CC(=O)Nc1cccc(C(=O)NC2CCN(Cc3ccc(-c4nc5cc[nH]c(=O)c5cc4-c4ccccc4)cc3)CC2)c1` [30b]: the inhibition at 1 µM worked out at 44% on BMX; 34% at ROCK1; 19% at RET; 1% at FRAP1 (mTOR); 14% on PRKCH (PKC eta); 22% at AURKA (Aurora A). The inhibition at 1 µM at TEK (Tie2) was 6%; at AURKB (Aurora B) it was 2%; on DCAMKL2 (DCK2), 3%; on ALK it was 1%; at PDGFRA (PDGFR alpha) it was -7%; at TXK, 2%.
For `C=CC(=O)Nc1cc(NC(=O)NC2CCN(Cc3ccc(-c4nc5cc[nH]c(=O)c5cc4-c4ccccc4)cc3)CC2)ccc1Cl` [compound 27], the inhibition at 1 µM on BMX is 3%; at ROCK1, 54%; on RET, 26%; at FRAP1 (mTOR) it was -2%; at PRKCH (PKC eta) it was 21%; at AURKA (Aurora A), 10%. Further, the inhibition at 1 µM was 5% at TEK (Tie2); 2% at AURKB (Aurora B); -1% at DCAMKL2 (DCK2); 2% at ALK; 0% on PDGFRA (PDGFR alpha); -9% on TXK.
